Here are results for one compound from US20260224723A1, “ANTI-B7H3 ANTIBODY-DRUG CONJUGATE AND USE THEREOF” (Duality Biologics (Suzhou) Co., Ltd., priority 2022, published 2026).

The series is described as follows: Pharmacokinetic study, single intravenous infusion in cynomolgus monkeys. As to conditions: both, cynomolgus monkey, in vivo. On the procedure: 18 cynomolgus monkeys (half female and half male) were weighed one day before administration, stratified based on the weight, and then randomly divided into 3 groups (3 females and 3 males/group): a low dose group (1 mg/kg), a medium dose group (3 mg/kg), and a high dose group (10 mg/kg). […] Blood was collected from the forelimb veins of cynomolgus monkeys in each group, and treated samples of the blood collected at 0 h before and 0.5 […], and 672 h after the administration were used as PK samples. After the blood collection at each time point was completed, serum was obtained by centrifugation for sample analysis.

SMILES strings stand for the structures.

For `CC[C@@]1(O)C(=O)OCc2c1cc1n(c2=O)Cc2c-1nc1cc(F)c(C)c3c1c2[C@@H](NC(=O)C[C@H](C)O)CC3` [P-III-30], under “3 mg/kg”, the AUC0-t is 1.07 ng·h/mL and the Cmax was 0.133 ng/mL. Moreover, the AUC0-t (10 mg/kg) came out at 44.5 ng·h/mL.
